Measurements published in patent US20070020194A1, “Nasally administered appetite suppressant” (priority 2005, published 2007).
Where “and” joins values, the source holds several entries; their conditions need not be identical. Identical values can stand only once.

What was measured:
[1] = cited from earlier work
[2] = 70 kg adult; cited from earlier work
[3] = Food intake study, intranasal lidocaine vs saline before a test meal; assay type: in vivo, human
Method: Three males and one female between 23 and 60 years of age with BMI's less than 25 kg/m2 participated in a study of food intake. The subjects presented to the food intake laboratory at noon after an overnight fast except for water from 9 pm the prior night on two occasions a week apart. They had 10 mg (0.5 cc) of lidocaine or 0.5 cc normal saline administered in each nostril 20 minutes before presentation of a meal consisting of fried chicken pieces and water. They were allowed to eat and drink as much or as little as they wished over a 20-minute period, and there were more chicken pieces than they could reasonably be expected to eat at one sitting. The order of the lidocaine and saline was balanced and the study was performed in a double-blind fashion.
The four subjects consumed 15%, 11%, 27% and 33% less on the lidocaine week compared to the placebo week. […] Sibutramine, an obesity drug, gives an 8% weight loss at 6 months and causes a 12% decrease in food intake.

[4] = applied topically; cited from earlier work

SMILES | weight loss ([1]; at 6 months) [%] | decrease in food intake ([1]; in vivo) [%] | maximum safe dosage for topical anesthetic [2] [mg] | less food consumed on the lidocaine week compared to the placebo week (individual subjects) ([3]; 10 mg (0.5 cc) lidocaine in each nostril 20 minutes before meal, 20-minute meal of fried chicken pieces, four subjects, BMI less than 25 kg/m2) | overall reduction in food intake ([3]; 10 mg lidocaine per nostril vs saline, four subjects, p<0.02) [%+10.2%] | weight loss that might result if the food intake reduction is sustained ([3]; extrapolated from pilot study by comparison with sibutramine) [%] | duration of anesthesia [4] [min] | time to peak anesthesia [4] [min]
CC(C)CC(N(C)C)C1(c2ccc(Cl)cc2)CCC1 (centres unmarked) [Sibutramine] | 8 | 12 |  |  |  |  |  | 
CCN(CC)CC(=O)Nc1c(C)cccc1C [lidocaine] |  |  | 500 | 15% and 11% and 27% and 33% | 21.5 | ≤ 14 | 30 to 45 | 2 to 5
